Experimental data reported in patent publication EP4671247A1, “SUBSTITUTED PYRAZOLOPYRIMIDINE COMPOUND AND PHARMACEUTICAL USE THEREOF” (Japan Tobacco Inc., priority 2023, dated 2024).

Target: T1, NLRP3 inflammasome (Homo sapiens, UniProt Q96P20)
T1 construct: host or cells: THP1-Null cells (PMA-differentiated, LPS-primed, nigericin-stimulated)
Assay: Evaluation of NLRP3 inflammasome inhibitory activity (inhibition of IL-1β production in LPS/Nigericin-stimulated THP1-Null cells, AlphaLISA)
Assay type: cell-based
Details: IL-1β production in THP1-Null cells; for IC50: PMA, 1 µg/mL Lipopolysaccharides 3 hours, Nigericin 7.5 µmol/L 1.5 hours, read-out: IC50
Outline: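 THP1-Null cells were primed with 1 µg/mL LPS, then given test compound and stimulated with nigericin. IL-1β in the culture supernatant was quantified by AlphaLISA. Inhibition was calculated with blank wells set as 100% and control wells as 0%.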

T1 sequence (Q96P20 whole entry): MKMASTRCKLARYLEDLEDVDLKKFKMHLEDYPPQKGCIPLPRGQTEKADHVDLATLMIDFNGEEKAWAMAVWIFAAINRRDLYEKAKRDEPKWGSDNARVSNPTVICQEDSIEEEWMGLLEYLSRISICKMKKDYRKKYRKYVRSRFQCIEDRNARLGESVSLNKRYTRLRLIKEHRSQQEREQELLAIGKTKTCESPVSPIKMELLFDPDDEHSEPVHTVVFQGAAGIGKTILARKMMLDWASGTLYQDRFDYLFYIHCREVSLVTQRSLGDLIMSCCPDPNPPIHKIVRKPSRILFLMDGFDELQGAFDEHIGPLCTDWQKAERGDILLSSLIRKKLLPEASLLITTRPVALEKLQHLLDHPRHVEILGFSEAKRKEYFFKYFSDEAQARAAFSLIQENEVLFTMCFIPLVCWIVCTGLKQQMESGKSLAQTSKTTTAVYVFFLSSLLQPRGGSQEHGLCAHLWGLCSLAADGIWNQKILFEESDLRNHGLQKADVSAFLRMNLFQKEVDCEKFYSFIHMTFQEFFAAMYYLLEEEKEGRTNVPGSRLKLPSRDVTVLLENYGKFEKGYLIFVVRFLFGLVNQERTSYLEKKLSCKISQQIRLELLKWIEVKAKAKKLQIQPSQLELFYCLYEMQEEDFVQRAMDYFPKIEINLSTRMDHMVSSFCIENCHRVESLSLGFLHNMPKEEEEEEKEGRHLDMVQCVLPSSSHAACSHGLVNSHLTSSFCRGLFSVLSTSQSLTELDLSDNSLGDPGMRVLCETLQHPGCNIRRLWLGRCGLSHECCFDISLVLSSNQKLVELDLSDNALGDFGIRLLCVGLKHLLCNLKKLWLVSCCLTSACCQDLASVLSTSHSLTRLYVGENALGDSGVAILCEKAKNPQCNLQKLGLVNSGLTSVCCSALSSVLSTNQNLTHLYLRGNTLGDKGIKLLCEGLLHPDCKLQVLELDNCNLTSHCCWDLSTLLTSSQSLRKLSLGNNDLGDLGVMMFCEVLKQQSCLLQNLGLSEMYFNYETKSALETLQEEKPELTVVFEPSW

| SMILES | IC50 | inhibition at 24 µM (test compound at 24 µM) |
| --- | --- | --- |
| O=c1[nH]c(C2CC2)nc2nn(-c3ccc(C4CC4)cc3C(F)(F)F)cc12 [Example 198] | 11 nM | – |
| Cc1cc(C2CC2)cc(C)c1-n1cc2c(=O)[nH]c(C#N)nc2n1 [Example 199] | 240 nM | – |
| COCc1nc2nn(-c3c(C)cc(C(C)(F)F)cc3C)cc2c(=O)[nH]1 [Example 200] | 75 nM | – |
| Cc1cc(C2CC2)cc(C)c1-n1cc2c(=O)[nH]c(C(=O)NC3COC3)nc2n1 [Example 201] | 740 nM | – |
| Cc1cc(C(C)(F)F)cc(C)c1-n1cc2c(=O)[nH]c(COC(F)F)nc2n1 [Example 202] | 40 nM | – |
| Cc1cc(C2CC2)cc(C)c1-n1cc2c(=O)[nH]c(C(N)=O)nc2n1 [Example 203] | 290 nM | – |
| Cc1cc(C2CC2)cc(C)c1-n1cc2c(=O)[nH]c(C(=O)NCC(F)F)nc2n1 [Example 204] | 50 nM | – |
| CCNC(=O)c1nc2nn(-c3c(C)cc(C4CC4)cc3C)cc2c(=O)[nH]1 [Example 205] | 11 nM | – |
| CC(=O)c1nc2nn(-c3c(C)cc(C(C)(F)F)cc3C)cc2c(=O)[nH]1 [Example 206] | 360 nM | – |
| CNC(=O)c1nc2nn(-c3c(C)cc(C(C)(F)F)cc3C)cc2c(=O)[nH]1 [Example 207] | 270 nM | – |
| Cc1cc(C(C)(F)F)cc(C)c1-n1cc2c(=O)[nH]c(CCO)nc2n1 [Example 208] | 66 nM | – |
| Cc1cc(OC(F)F)cc(C)c1-n1cc2c(=O)[nH]c(CCO)nc2n1 [Example 209] | 25 nM | – |
| COc1nc(C)nc2nn(-c3c(C)cc(Br)cc3C)cc12 [Example 210, 2-(4-bromo-2,6-dimethylphenyl)-4-methoxy-6-methyl-2H-pyrazolo[3,4-d]pyrimidine] | – | 9% |
| O=c1[nH]c(C2CC2)nc2nn(-c3cc4c(cc3Cl)OCCC4)cc12 [Example 211] | 27 nM | – |
